Laboratory results published in PubChem BioAssay (NCI).
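Grown in 96-well plates, cells were treated for 48 hours with each compound at five concentrations. Insufficient inhibition: endpoint recorded as highest concentration tested. Here, GI50 denotes the concentration required for 50% inhibition of growth. The concentration for full growth arrest is given as TGI.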

Columns and labels:
Assay in all cases: NCI-60 cell line screen, 48 h
A498 renal = system: A498 renal
COLO 205 colon = system: COLO 205 colon
ACHN renal = system: ACHN renal
RXF 393 renal = system: RXF 393 renal
M14 melanoma = system: M14 melanoma
NCI-H23 lung = system: NCI-H23 lung
SN12C renal = system: SN12C renal
SK-OV-3 ovarian = system: SK-OV-3 ovarian
HL-60(TB) leukemia = system: HL-60(TB) leukemia
SW-620 colon = system: SW-620 colon

Row | Compound | TGI (A498 renal) | TGI (COLO 205 colon) | TGI (ACHN renal) | TGI (RXF 393 renal) | TGI (M14 melanoma) | TGI (NCI-H23 lung) | TGI (SN12C renal) | TGI (SK-OV-3 ovarian) | TGI (HL-60(TB) leukemia) | TGI (SW-620 colon) | GI50 (A498 renal) | GI50 (COLO 205 colon) | GI50 (ACHN renal) | GI50 (RXF 393 renal) | GI50 (NCI-H23 lung) | GI50 (SN12C renal) | GI50 (SK-OV-3 ovarian) | GI50 (HL-60(TB) leukemia) | GI50 (SW-620 colon) | GI50 (M14 melanoma)
1 | CCCCCCCCCCCCO[P+](=O)OCCCCCCCCCCCC | > 100 µM | > 100 µM | > 100 µM | > 100 µM | > 100 µM | > 100 µM | > 100 µM | > 100 µM | > 100 µM | > 100 µM |  |  |  |  |  |  |  |  |  | 
2 | NC(=O)Oc1ccccc1 | > 100 µM | > 100 µM | > 100 µM | > 100 µM | > 100 µM | > 100 µM | > 100 µM | > 100 µM | > 100 µM | > 100 µM |  |  |  |  |  |  |  |  |  | 
3 | C=C(C)[C@@H]1CC[C@]2(C(=O)NC(C)=O)CC[C@]3(C)[C@H](CC[C@@H]4[C@@]5(C)CCCNC(C)(C)[C@@H]5CC[C@]43C)[C@@H]12 | 2.91 µM | 2.98 µM | 3.15 µM | 3.26 µM |  | 3.51 µM | 2.79 µM | 3.22 µM | 3.2 µM | 3.07 µM | 1.53 µM | 1.19 µM | 1.77 µM | 1.76 µM | 1.76 µM | 1.47 µM | 1.63 µM | 1.35 µM | 1.53 µM | 
4 | CCOC(=O)Cn1c(=O)c(C)cn(COCCO)c1=O | > 100 µM | > 100 µM | > 100 µM | > 100 µM | > 100 µM | > 100 µM | > 100 µM |  | > 100 µM | > 100 µM |  |  |  |  |  |  |  |  |  | 
5 | O=C(CCC1CCCCN1)Nc1ccc2c(c1)C(=O)c1ccc(NC(=O)CCN3CCCCC3)cc1C2=O (stereo not given) | 16.2 µM | 2.65 µM |  | 2.07 µM | 2.8 µM | 5.27 µM | 4.34 µM | 70.1 µM |  |  |  |  |  |  |  |  |  |  |  | 
6 | CCN(CC)CCO[Si](OCCN(CC)CC)(OCCN(CC)CC)OCCN(CC)CC |  | > 100 µM |  | > 100 µM | > 100 µM | > 100 µM | > 100 µM | > 100 µM |  | > 100 µM |  |  |  |  |  |  |  |  |  | 
7 | CN/N=C(\C(=O)Nc1ccc(C)c(C)c1)C(C(=O)OC)c1nc2ccc([N+](=O)[O-])cc2[nH]c1=O (stereo not given) | > 100 µM | > 100 µM | > 100 µM | > 100 µM | > 100 µM | > 100 µM | > 100 µM | > 100 µM | > 100 µM | > 100 µM |  |  |  |  |  |  |  |  |  | 
8 | COC(=O)C1c2cc3c(c(O)c2C(O)CC1(C)O)C(=O)c1c(O)cc2c(c1C3=O)OC1OC2(C)C(O)C(N(C)C)C1O (stereo not given) |  | > 32.4 µM |  | > 100 µM |  |  |  | > 27.8 µM | > 24.9 µM |  |  |  |  |  |  |  |  |  |  | 
9 | COc1ccc(-c2n/c(=C\c3c(O)[nH]c4ccccc34)cc3c2=Nc2ccccc2-3)cc1 | 13.2 µM |  | 21.3 µM | 2.67 µM | 2.43 µM | 3.09 µM | 5.3 µM | 35.6 µM | 4.08 µM | 2.31 µM | 2.42 µM |  | 6.81 µM | 1.26 µM | 1.55 µM | 2.03 µM | 9.19 µM | 1.9 µM | 1.11 µM | 1.15 µM
10 | S=c1nc[nH]c2c1ncn2C1CCCO1 (stereo not given) | > 100 µM | > 100 µM | > 100 µM | > 100 µM | > 100 µM | > 100 µM | > 100 µM | > 100 µM | > 100 µM | > 100 µM |  |  |  |  |  |  |  |  |  | 
11 | CCOC(C)OC1CC(n2cc(C)c(=O)[nH]c2=O)OC1CO (stereo not given) | > 100 µM | > 100 µM | > 100 µM | > 100 µM | > 100 µM | > 100 µM | > 100 µM | > 100 µM | > 100 µM | > 100 µM |  |  |  |  |  |  |  |  |  | 
12 | CCOC(=O)C1=C(C)N(C2OC(COC(=O)c3ccccc3)C(OC(=O)c3ccccc3)C2OC(=O)c2ccccc2)C(=S)NC1c1ccccc1 (stereo not given) | > 100 µM | > 100 µM | > 100 µM |  | 93.2 µM | > 100 µM | > 100 µM | > 100 µM | 33.9 µM | > 100 µM |  |  |  |  |  |  |  |  |  | 
13 | COc1ccc(C2=NC(c3ccc(Cl)cc3)C(c3ccc(Cl)cc3)N2C(=O)N2CCNC(=O)C2)c(OC(C)C)c1 (stereo not given) | 3.55 µM | > 10 µM | 3.33 µM | 6.84 µM | 3.31 µM | 3.45 µM | 3.49 µM | 4.31 µM | > 10 µM | 6.12 µM | 1.89 µM | 3.31 µM | 1.89 µM | 3.6 µM | 1.83 µM | 1.94 µM | 2.27 µM | 3.62 µM | 2.41 µM | 1.84 µM
14 | CN1CN(C(=O)N2CN(C)C(=O)N(C)C2)CN(C)C1=O | > 100 µM | > 100 µM | > 100 µM |  | > 100 µM |  | > 100 µM | > 100 µM | > 100 µM | > 100 µM |  |  |  |  |  |  |  |  |  | 
15 | C(=C/c1nc2ccccc2o1)/c1ccc2c(c1)OCO2 | 56.8 µM | > 100 µM |  | 41.9 µM |  | > 100 µM | > 100 µM | 53.1 µM | > 96.5 µM | > 100 µM |  |  |  |  |  |  |  |  |  | 
16 | CC1OC(=O)C(C(C)C)NC(=O)C(C(C)C)OC(=O)C(C(C)C)NC(=O)C(C)OC(=O)C(C(C)C)NC(=O)C(C(C)C)OC(=O)C(C(C)C)NC(=O)C(C)OC(=O)C(C(C)C)NC(=O)C(C(C)C)OC(=O)C(C(C)C)NC1=O (stereo not given) | 0.0383 µM |  | < 0.0001 µM | 0.328 µM |  | 0.0503 µM | 0.233 µM | 0.225 µM |  | 4.85 µM |  | < 0.0001 µM |  |  | < 0.0001 µM | 0.00019 µM |  | < 0.0001 µM | < 0.0001 µM | 
17 | NS(=O)(=O)c1ccc(N=Nc2ccc(O)c(C(=O)O)c2)cc1 | > 100 µM | > 100 µM | > 100 µM | > 100 µM | > 100 µM | > 100 µM | > 100 µM | > 100 µM | > 100 µM | > 100 µM |  |  |  |  |  |  |  |  |  | 
